Measurements from patent US6924302B2, “Substituted triazole diamine derivatives as kinase inhibitors” (Ortho McNeil Pharmaceutical, Inc., priority 2000, dated 2005).
Like-named read-outs stand apart in the source and are kept apart here.

Assays:
[1] = test system: HeLa cervical adenocarcinoma; test: Inhibition of Cell Proliferation (14C-thymidine incorporation), HeLa; format: cell-based; conditions: Homo sapiens, HeLa cell line
Protocol: (§1) The ability of a test compound to inhibit the proliferation of cell growth was determined by measuring incorporation of ^14C-labelled thymidine into newly synthesized DNA within the cells. This method was used on cell lines derived from carcinomas originating from several tissues such as HeLa cervical adenocarcinoma (American Type Culture Collection (ATCC), Virginia, Cat. #CCL-2), A375 malignant melanoma (ATCC CRL-1619), SK-OV-3 ovarian adenocarcinoma (ATCC HTB-77) HCT-116 colon carcinoma (CCL-247), PC-3 prostate adenocarcinoma (ATCC CRL-1435), and MDA-MB-231 (Xenogen Corp.) In this way the effect of a compound on cell growth of cells with many different phenotypes can be determined. Cells were trypsinized and counted and 3000-8000 cells were added to each well of a 96-well CytoStar tissue culture treated scintillating microplate (Amersham #RPNQ0160) in complete medium in a volume of 100 μl. Cells were incubated for 24 hours in complete medium at 37° C. in an atmosphere containing 5% CO2. Next, 1 μl of test compound in 100% DMSO was added to the wells of the plate. DMSO only was added to control wells. Cells were incubated for 24 more hours in complete medium at 37° C. in an atmosphere containing 5% CO2. Methyl ^14C-thymidine 56 mCi/mmol (NEN #NEC568 or Amersham #CFA532) was diluted in complete medium and 0.2 uCi/well was added to each well of the CytoStar plate in a volume of 20 μl. The plate was incubated for 24 hours at 37° C. plus 5% CO2 in drug plus ^14C-thymidine. The contents of the plate were discarded into a ^14C radioactive waste container by inverting the plate and the plate was washed twice with 200 μl PBS. 200 μl of PBS is added to each well. The top of the plate was sealed with a transparent plate sealer and a white plate backing sealer (Packard #6005199) was applied to the bottom of the plate. The degree of methyl ^14C-thymidine incorporation was quantified on a Packard Top Count.

Insulin Receptor Kinase = Insulin Receptor Kinase (Homo sapiens, UniProt P06213); test: Kinase Selectivity Assay Insulin Receptor Kinase; format: biochemical; conditions: Kinase Selectivity, Tables 2a-2k; read-out: Insulin R Kinase IC50
Protocol: (§2) Assays to test compound inhibition of other kinases were preformed using methods that measure the amount of phosphorylation of a biotinylated peptide substrate. Biotinylated peptide substrates were selected from the literature as appropriate for the enzyme being evaluated. […] Assay conditions vary slightly for each protein kinase, for example, insulin receptor kinase requires 10 mM MnCl2 for activity and Calmodulin-dependent protein kinase requires calmodulin and 10 mM CaCl2. These assay conditions are known in the art. The reaction mixture was dispensed into the wells of a streptavidin coated Flashplate and 1 μl drug stock in 100% DMSO was added to a 100 μl reaction volume resulting in a final concentration of 1% DMSO on the reaction. Enzyme was diluted in 50 mM Tris-HCl pH=8.0, 0.1% BSA and add to each well. The reaction was incubated for one hour at 30° C. in the presence of compound. After one hour the reaction mix was aspirated from the plate and the plate was washed with PBS containing 100 mM EDTA. The plate was read on a scintillation counter to determine ^33P-γ-ATP incorporated into the immobilized peptide. Test compounds were assayed in duplicate at 8 concentrations [100 uM, 10 uM, 1 uM, 100 nM, 10 nM, 1 nM, 100 pM, 10 pM]. A maximum and minimum signal for the assay was determined on each plate. The IC50 was calculated from the dose response curve of the percent inhibition of the maximum signal in the assay according to the formula [max signal—background/test compound signal—background (100)=% inhibition] by graphing the percent inhibition against the log concentration of test compound. Known inhibitor compounds appropriate for the kinase being assayed were also included on each plate.
(§3) CDK2 in complex with cyclin A is commercially available (Upstate Biotech, Lake Placid, N.Y.). The CDK4 complex was composed of a mouse CDK4 protein and a mouse Cyclin D1 protein (The mouse CDK4 protein was genetically fused to an N-terminal Flag-epitope tag and the mouse Cyclin D1 protein was fused with an N-terminal AU-1 epitope tag. The genes encoding these proteins were transferred to commercially available baculoviral vectors. The recombinant CDK4/D1 complex was then made by co-infecting commercially available insect cells with viruses carrying these two constructs). […] ERK-1 protein (Discontinued from Calbiochem). EGFR (epidermal growth factor receptor) is purified from human A431 cell membranes (Sigma, St. Louis, Mo., Cat.# E3641).

[2] = molecular target: T1, PDGF-R (platelet derived growth factor receptor) beta subunit kinase domain (Homo sapiens, UniProt P09619); test: Kinase Selectivity Assay PDGF-R; format: biochemical; conditions: Kinase Selectivity, Tables 2a-2k; read-out: PDGF-R kinase IC50
T1 construct: nucleotides 1874-3507 of the human PDGF-R beta subunit kinase domain; polyhistidine (N)
Protocol: as §2, §3

[3] = molecular target: T2, Calmodulin Kinase (calmodulin-dependent protein kinase 2) (Rattus norvegicus, UniProt P11275); test: Kinase Selectivity Assay Calmodulin Kinase; format: biochemical; conditions: Kinase Selectivity, Tables 2a-2k; read-out: Calmodulin Kinase 2 IC50
T2 construct: a truncated version of the alpha subunit of the rat protein; purchased New England Biolabs 6060; host or cells: insect cells
Protocol: as §2, §3

[4] = molecular target: T3, Casein Kinase 1 (CK1 delta isoform) (Rattus norvegicus, UniProt Q06486); test: Kinase Selectivity Assay Casein Kinase 1; format: biochemical; conditions: Tables 2a-2k, read-out: Caseine Kinase 1 IC50
T3 construct: a truncation at amino acid 318 of the C-terminal portion of the rat CK1 delta isoform; purchased New England Biolabs 6030; host or cells: E. coli
T3 sequence (Q06486 1-317): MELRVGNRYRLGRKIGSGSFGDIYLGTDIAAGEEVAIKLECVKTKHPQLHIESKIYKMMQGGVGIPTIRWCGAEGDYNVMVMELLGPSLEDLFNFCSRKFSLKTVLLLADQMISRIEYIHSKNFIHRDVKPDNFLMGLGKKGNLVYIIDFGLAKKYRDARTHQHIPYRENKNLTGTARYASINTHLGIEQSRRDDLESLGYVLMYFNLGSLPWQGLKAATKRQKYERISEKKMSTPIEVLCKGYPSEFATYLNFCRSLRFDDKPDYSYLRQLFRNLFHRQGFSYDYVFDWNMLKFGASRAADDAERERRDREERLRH
Protocol: as §2, §3

A375 malignant melanoma = test: Inhibition of Cell Proliferation (14C-thymidine incorporation), A375; format: cell-based; conditions: Homo sapiens, A-375, A375 cell line
Protocol: as §1

HCT-116 colon carcinoma = test: Inhibition of Cell Proliferation (14C-thymidine incorporation), HCT-116; format: cell-based; conditions: Homo sapiens, HCT-116 cell line
Protocol: as §1

[5] = molecular target: T4, Glycogen Synthase Kinase-3 (beta isoform) (Oryctolagus cuniculus, UniProt G1T8E2); test: Kinase Selectivity Assay Glycogen Synthase Kinase-3; format: biochemical, rabbit; conditions: Kinase Selectivity, Tables 2a-2k; read-out: GSK-3 IC50
T4 construct: purchased New England Biolabs 6040; host or cells: E. coli
Protocol: as §2, §3

[6] = molecular target: T5, Casein Kinase 2 (alpha and beta subunits) (Homo sapiens, UniProt P68400); test: Kinase Selectivity Assay Casein Kinase 2; format: biochemical; conditions: Kinase Selectivity, Tables 2a-2k; read-out: Caseine Kinase 2 IC50
T5 construct: purchased New England Biolabs 6010; host or cells: E. coli
Protocol: as §2, §3

Protein Kinase A = molecular target: T6, Protein Kinase A (Bos taurus, UniProt P00517); test: Kinase Selectivity Assay Protein Kinase A; format: biochemical, bovine; conditions: Kinase Selectivity, Tables 2a-2k; read-out: PKA IC50
T6 construct: purified from bovine heart; purchased Upstate Biotech 14-114; host or cells: bovine heart
Protocol: as §2, §3

[7] = molecular target: T7, MAP Kinase (ERK-2 isoform) (Rattus norvegicus, UniProt P63086); test: Kinase Selectivity Assay MAP Kinase (ERK-2); format: biochemical; conditions: Kinase Selectivity, Tables 2a-2k; read-out: ERK 2 IC50
T7 construct: polyhistidine (N); host or cells: E. coli
Protocol: as §2, §3

[8] = molecular target: T8, CDK2 in complex with cyclin A (Homo sapiens, UniProt P24941); test: Kinase Selectivity Assay CDK2; format: biochemical; conditions: Table 1
T8 construct: purchased Upstate Biotech
Protocol: as §2, §3

[9] = molecular target: T9, VEGF-R (vascular endothelial growth factor receptor-2) (Rattus norvegicus, UniProt O08775); test: VEGF-R Screening Assay; format: biochemical; conditions: read-out: VEGF-R IC50
T9 construct: polyhistidine (6xHIS) (N)
T9 sequence (O08775 786-1343): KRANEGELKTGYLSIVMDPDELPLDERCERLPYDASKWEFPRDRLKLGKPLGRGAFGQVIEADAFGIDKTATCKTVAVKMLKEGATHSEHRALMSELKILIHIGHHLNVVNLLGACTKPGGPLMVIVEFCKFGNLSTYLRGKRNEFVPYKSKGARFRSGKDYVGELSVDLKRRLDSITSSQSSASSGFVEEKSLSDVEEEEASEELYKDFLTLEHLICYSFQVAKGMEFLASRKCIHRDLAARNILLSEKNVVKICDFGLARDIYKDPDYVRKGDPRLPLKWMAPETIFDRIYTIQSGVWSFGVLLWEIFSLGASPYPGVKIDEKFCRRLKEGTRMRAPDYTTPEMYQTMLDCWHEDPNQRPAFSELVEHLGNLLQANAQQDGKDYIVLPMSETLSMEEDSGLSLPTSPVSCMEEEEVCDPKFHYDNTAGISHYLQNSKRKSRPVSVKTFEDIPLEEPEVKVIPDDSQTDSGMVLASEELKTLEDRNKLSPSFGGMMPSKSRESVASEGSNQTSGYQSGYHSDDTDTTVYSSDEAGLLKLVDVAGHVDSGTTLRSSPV

T5 sequence (P68400 whole entry): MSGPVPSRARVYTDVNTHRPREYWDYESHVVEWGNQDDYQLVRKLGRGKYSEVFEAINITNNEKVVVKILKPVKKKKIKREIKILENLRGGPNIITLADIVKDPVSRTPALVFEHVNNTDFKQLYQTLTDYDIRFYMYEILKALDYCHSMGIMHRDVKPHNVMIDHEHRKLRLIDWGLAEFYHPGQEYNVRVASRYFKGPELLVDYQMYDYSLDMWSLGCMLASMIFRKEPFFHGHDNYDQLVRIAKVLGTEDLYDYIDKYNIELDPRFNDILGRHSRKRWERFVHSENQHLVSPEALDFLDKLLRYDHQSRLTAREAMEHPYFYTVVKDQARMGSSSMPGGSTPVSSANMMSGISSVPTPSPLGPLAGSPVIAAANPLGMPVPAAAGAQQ
T5 sequence (P67870 whole entry partner): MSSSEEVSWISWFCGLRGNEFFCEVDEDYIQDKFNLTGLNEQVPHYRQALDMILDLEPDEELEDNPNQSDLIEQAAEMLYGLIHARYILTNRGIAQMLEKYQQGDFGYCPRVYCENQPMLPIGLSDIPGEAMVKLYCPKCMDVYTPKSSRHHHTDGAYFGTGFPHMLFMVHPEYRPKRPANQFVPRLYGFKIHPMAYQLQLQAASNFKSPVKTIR
Chain of Insulin Receptor Kinase (P06213 980-1352): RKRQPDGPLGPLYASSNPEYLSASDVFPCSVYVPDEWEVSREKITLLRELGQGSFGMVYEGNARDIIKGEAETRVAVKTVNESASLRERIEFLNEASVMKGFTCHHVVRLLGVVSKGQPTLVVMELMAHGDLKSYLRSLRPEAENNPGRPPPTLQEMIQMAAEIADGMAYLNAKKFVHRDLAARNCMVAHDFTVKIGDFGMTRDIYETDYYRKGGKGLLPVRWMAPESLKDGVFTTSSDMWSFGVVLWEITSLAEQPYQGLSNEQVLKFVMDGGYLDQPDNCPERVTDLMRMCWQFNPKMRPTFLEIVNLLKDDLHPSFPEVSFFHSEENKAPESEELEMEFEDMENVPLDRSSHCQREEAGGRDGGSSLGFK
T1 sequence (P09619 564-1106): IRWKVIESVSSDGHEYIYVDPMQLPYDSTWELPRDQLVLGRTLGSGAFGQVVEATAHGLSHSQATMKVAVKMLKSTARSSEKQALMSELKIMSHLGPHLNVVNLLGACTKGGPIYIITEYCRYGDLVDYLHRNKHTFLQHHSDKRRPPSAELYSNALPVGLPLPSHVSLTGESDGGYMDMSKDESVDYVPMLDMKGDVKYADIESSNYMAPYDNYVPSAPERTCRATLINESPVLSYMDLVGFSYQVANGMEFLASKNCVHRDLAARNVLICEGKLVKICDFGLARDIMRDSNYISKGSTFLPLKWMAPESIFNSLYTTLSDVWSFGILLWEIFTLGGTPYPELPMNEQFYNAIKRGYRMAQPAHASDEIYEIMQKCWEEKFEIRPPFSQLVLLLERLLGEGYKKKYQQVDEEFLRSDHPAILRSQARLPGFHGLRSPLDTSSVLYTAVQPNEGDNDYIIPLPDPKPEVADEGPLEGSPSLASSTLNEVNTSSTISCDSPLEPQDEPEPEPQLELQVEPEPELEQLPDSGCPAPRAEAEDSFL
T7 sequence (P63086 whole entry, canonical isoform): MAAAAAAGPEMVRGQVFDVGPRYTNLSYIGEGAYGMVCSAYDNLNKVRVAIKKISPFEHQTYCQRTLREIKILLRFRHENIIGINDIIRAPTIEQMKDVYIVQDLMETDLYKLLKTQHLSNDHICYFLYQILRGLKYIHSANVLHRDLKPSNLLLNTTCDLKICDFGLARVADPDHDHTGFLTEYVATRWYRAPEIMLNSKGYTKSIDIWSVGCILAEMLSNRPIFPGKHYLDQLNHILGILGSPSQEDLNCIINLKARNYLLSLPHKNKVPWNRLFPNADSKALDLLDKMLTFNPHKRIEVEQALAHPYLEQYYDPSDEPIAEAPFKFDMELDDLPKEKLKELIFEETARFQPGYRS
T4 sequence (G1T8E2 1-432): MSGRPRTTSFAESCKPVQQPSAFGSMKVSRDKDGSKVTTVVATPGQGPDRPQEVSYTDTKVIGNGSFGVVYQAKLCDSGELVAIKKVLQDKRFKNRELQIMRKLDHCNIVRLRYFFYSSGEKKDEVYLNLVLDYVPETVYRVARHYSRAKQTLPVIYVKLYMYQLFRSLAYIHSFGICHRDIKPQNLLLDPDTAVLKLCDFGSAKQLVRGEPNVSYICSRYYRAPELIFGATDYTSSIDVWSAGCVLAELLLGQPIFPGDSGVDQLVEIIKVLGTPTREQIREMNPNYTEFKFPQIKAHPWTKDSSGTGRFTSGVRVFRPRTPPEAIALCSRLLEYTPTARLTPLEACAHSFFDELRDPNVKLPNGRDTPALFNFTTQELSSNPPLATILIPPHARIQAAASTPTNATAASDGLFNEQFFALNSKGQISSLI

Structure (SMILES)	IC50 [1]	IC50 (Insulin Receptor Kinase)	IC50 [2]	IC50 [3]	IC50 [4]	IC50 (A375 malignant melanoma)	IC50 (HCT-116 colon carcinoma)	IC50 [5]	IC50 [6]	IC50 (Protein Kinase A)	IC50 [7]	IC50 [8]	IC50 ([9]; Kinase Selectivity, Tables 2a-2k)	IC50 ([9]; Table 1)
Cc1ccc(F)c(C(=O)n2nc(Nc3ccc(N4CCNC4=O)cc3)nc2N)c1F [Cpd 114, 1-[4-[[5-amino-1-(2,6-difluoro-3-methylbenzoyl)-1H-1,2,4-triazol-3-yl]amino]phenyl]-2-imidazolidinone]	2530 nM	> 100 µM	13.8 µM	> 100 µM	2 µM	1690 nM	1380 nM	0.431 µM	> 100 µM	> 100 µM	15.8 µM			
Nc1nc(Nc2ccc(N3CCNC3=O)cc2)nn1C(=O)c1c(F)cccc1F [Cpd 115, 1-[4-[[5-amino-1-(2,6-difluorobenzoyl)-1H-1,2,4-triazol-3-yl]amino]phenyl]-2-imidazolidinone]	676 nM	> 10 µM	> 10 µM	> 100 µM	9.98 µM	529 nM	486 nM	0.391 µM	> 100 µM	> 100 µM	> 10 µM			
Cc1ccsc1C(=O)n1nc(Nc2ccc(S(=O)(=O)Nc3ccccn3)cc2)nc1N [Cpd 121]	310 nM	> 100 µM	0.394 µM	> 100 µM	> 10 µM	215 nM	608 nM	0.029 µM	> 100 µM	> 100 µM	> 100 µM	0.003 µM		
Nc1nc(Nc2ccc(S(N)(=O)=O)cc2)n(C(=S)Nc2c(F)cccc2F)n1 [Cpd 128, 3-amino-5-[[4-(aminosulfonyl)phenyl]amino]-N-(2,6-difluorophenyl)-1H-1,2,4-triazole-1-carbothioamide]		2.65 µM	1.91 µM	13.2 µM	8.97 µM			0.094 µM	> 100 µM	> 100 µM	2.07 µM	0.0033 µM	0.118 µM	0.118 µM
